Reference: patent US8999890B2, “Signaling compositions, methods, and systems for effecting plant burndown and herbicide enhancement” (KamTec, priority 2013, dated 2015)
“And” between values parts separate entries of the source, which are not always exact repeats. Equal values may be shown once.

Columns and labels:
Type in all cases: in vivo
‘M-202’ type rice = test: Rice seed soaking treatment, 24 hours (Example II); conditions: for Biomass / Height / Tillering: 24 hrs soak, tap water irrigation, vs Set 1 (water)
Description: In this preferred embodiment of the present invention, seeds are soaked in prepared bio-regulator solutions for a period of 24 hours. Rice seeds were selected from the same ‘M-202’ type grains as in the previous study. The bio-regulator solutions were prepared using 5 ppm BMPA solution. The solution was drained and seeds planted in starter plastic containers filled with potting soil. After germination and plant growth reaching height of four inches, rice seedlings were transplanted from their greenhouse containers to six-inch diameter plastic containers and placed outdoor. Again, two sets of three pots for the control and test group were used.
These studies were also carried out using an increased amount of BMPA. The amount was increased from 1 ppm to 5 ppm, and the results of the study were similar to the results outlined in the paragraph above.

[1] = system: aphid infestation on cotton Bt plant; test: Cotton Bt seed soaking, aphid infestation (Example VII)
Description: In this preferred embodiment of the present invention, seeds were soaked for a period of 3 hours in the bio-regulator solution. Cotton Bt were selected and studied to determine if bio-regulator chemistry will enhance or influence the inserted Bt genes of the transgenic plant. The seeds were separated into two different sets on July 2. The first set, Set 1, was soaked in 5 ppm BMPA solution with 0.05% Kinetic®. The second set, Set 2, was soaked in water with 0.05% v/v Kinetic®. The solution was drained and the treated seeds planted in starter plastic trays. After germination and after the seedlings reached the height of four inches, the cotton Bt plants were transplanted into larger six-inch plastic containers. The cotton plants were placed outdoors for the duration of the study. The different sets of plants were regularly observed throughout this study.

[2] = system: sunflower, Melody variety; test: Sunflower seed soaking, field plots (Example XI); conditions: for % Moist: control 12.53; for Wt at 6% Moist: control 60.74; for Wt. at 6 % Moist: normalized to 6% seed moisture content
Source text: In this preferred embodiment of the present invention, sunflower seeds were selected from the Melody variety and were soaked for three hours in solutions containing 0.05% Tween 20 and BMTA or BMPA, at a concentration of 3 ppm. Another group of seeds of the same variety was soaked in a solution with only in 0.05% Tween 20 added (control). Following soaking, seeds were desiccated to storage moisture contents and BMTA, BMPA and control seeds were sown in three twenty-five foot plots (Reps) each on May 21 (plots were arranged in a randomized block design). On September 16, sunflower heads were harvested, with a harvest of around 20 heads per plot/Rep on average. The heads were hand-threshed to collect seeds. Moisture, count, and weight data was collected on seeds from each head.

[3] = system: ‘M-202’ medium-grain rice (Oryza sativa L.); test: Rice seed soaking treatment with NaCl irrigation (Example I)
Description: In another preferred embodiment of the present invention, seeds are soaked in prepared bio-regulator solutions for a period of three hours. Rice seeds were selected from ‘M-202’ medium-grain rice (Oryza sativa L.), (Reg. no 72) PI494105 type grains; this selection was meant to represent a typical California rice seed, and was not meant to be limiting. The bio-regulator solutions are prepared using 5 ppm BMTA solution with 0.05% v/v Kinetic® made by Helena Chemical Company. The solution was drained and the seeds planted in starter plastic containers with potting soil. After germination and having grown to 4 inches in height, the plants were transplanted into 6 inch diameter plastic containers. Two sets of three pots each were set up for this study; one set for the test group and one set for the control group. Both the control and test studies were irrigated with 1500 ppm NaCl solution from time of planting until the study was completed. The purpose of the NaCl irrigation was to determine the effect of the bio-regulator treatment in regards to salt tolerances.

geranium slips = test: Treatment of geranium slips (Example III)
Description: In this preferred embodiment of the present invention, according to common geranium cutting means, geraniums were slipped into 18 slips of similar length. In this example the slips had no flower buds. The slips were separated into four different sets: three slips each in three of the sets, and then nine slips in the final set. The slips are then treated with bio-regulator solutions formed from compositions from the different groups and water. In the first set, the slips were treated with BMVE solution; in the second set, the slips were treated with BMTA solution; in the third set, the slips were treated with BMIA in bromide solution; and, in the fourth set, the nine slips were treated with water.
The treatment with bio-regulator solution preferably occurs in the initial planting of the geranium slips, but can also occur at any time from the forming of the geranium slips up to and including the transplanting of the slips. The treatment can occur after transplanting, but this is not the preferred method. […]
The study associated with this embodiment is summarized in Table 3-A below, where Set 1 is the control group and Set 2 is the test group. […] The ratios for Table 3-C are calculated by totaling the heights grown by each slip in each set and comparing it to the control counterpart that was grown in similar environmental conditions, without the treatment of the bio-regulator solutions. […]

[4] = mean over the three Reps, control 65.47
[5] = mean over the three Reps, control 1062
[6] = mean over the three Reps, control 2676
[7] = per Rep (plot), 3 ppm, three hours soak
[8] = per Rep, estimate based on planting rate of 20,000 seeds/acre
[9] = BMTA soln. 5 ppm, 3 hours seed soak, NaCl soln. irrigation, vs Set 1 (tap water)

Compound	% Moist ([2]; mean over the three Reps) [%]	Wt at 6% Moist ([2]; mean over the three Reps)	Fresh Seed Wt. [2, 4] [g]	Seed Count [2, 5]	Yield @ 20,000 Plants/Acre [2, 6] [lbs]	% Moist (seed moisture content) [2, 7]	Fresh Seed Wt. [2, 7]	Seed Count [2, 7]	Yield @ 20,000 Plants/Acre [2, 8]	Wt. at 6 % Moist ([2]; per Rep)	other results
CN(CCOC(=O)COc1ccccc1)Cc1ccccc1 [BMPA]	13.27	64.29	69.75	1071	2832	13.52% and 13.93% and 12.37%	78.24 gm and 65.01 gm and 65.99 gm	1185 and 977 and 1052	3171 lbs and 2617 lbs and 2708 lbs	71.99 and 59.42 and 61.46	Observed growth from planting through completion of the study (‘M-202’ type rice; 5 ppm BMPA, 24 hours soak): enhanced growth; Biomass (‘M-202’ type rice; BMPA 1 ppm): ~4 x Set 1; Height (‘M-202’ type rice; BMPA 1 ppm): ~1.2 x Set 1; Tillering (‘M-202’ type rice; BMPA 1 ppm): ~4 x Set 1; Biomass (‘M-202’ type rice; BMPA 5 ppm): ~4 x Set 1; Height (‘M-202’ type rice; BMPA 5 ppm): ~1.2 x Set 1; Tillering (‘M-202’ type rice; BMPA 5 ppm): ~4 x Set 1; Delay of the infestation of aphids on the cotton Bt plant ([1]; 5 ppm BMPA seed soak vs untreated): ≤ 19 days; Aphid infestation, Treated ([1]; 47 days after planting, 5 ppm BMPA, 3 hrs seed soak, control L-Aphid): No Aphid; Aphid infestation, Treated ([1]; 55 days after planting, control H-Aphid): No Aphid; Aphid infestation, Treated ([1]; 57 days after planting, control H-Aphid): L-Aphid; Aphid infestation, Treated ([1]; 74 days after planting, control Stressed): M-Aphid
Cc1ccc(C(=O)OCCN(C)Cc2ccccc2)cc1 [BMTA]	13.64	65.08	70.85	1108	2867	13.10% and 13.01% and 14.82%	77.35 gm and 73.58 gm and 61.64 gm	1226 and 1157 and 942	3147 lbs and 2989 lbs and 2464 lbs	71.43 and 67.86 and 55.94	Observed growth from planting through completion of the study ([3]; 5 ppm BMTA, 1500 ppm NaCl irrigation): enhanced growth; Biomass [3, 9]: ~3 x Set 1; Height [3, 9]: Same; Tillering [3, 9]: ~3 x Set 1; % of Control (geranium slips; Day 11, total height vs water control slips): 186.49%; % of Control (geranium slips; Day 27, total height vs water control slips): 162.26%
